Patent US11066668B2, “Compositions and methods for modulation of IKBKAP splicing” (Ionis Pharmaceuticals, Inc., priority 2012, dated 2021)
Oligonucleotides are written 5' to 3', each unit as a sugar letter and its base; * is a phosphorothioate linkage, no mark a phosphodiester; rarer units and linkages stand in square brackets, end groups in braces. Plain capitals give the bases only. e = 2'-O-(2-methoxyethyl) (MOE); [5mC] = 5-methylcytosine

Experiments:
[1] = tested on: IKBKAP pre-mRNA (mt19-21 minigene); test: Exon 20 inclusion in HEK-293 cells harboring the mt19-21 IKBKAP minigene (RT-PCR); format: cell-based, human; conditions: Table 2 (microwalk experiment); HEK-293 with mt19-21 minigene, 0.007 nmol oligonucleotide by electroporation, RT-PCR two days later
In short: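 HEK-293 cells carrying the mt19-21 IKBKAP minigene were electroporated with 0.007 nmol uniform 2′-MOE phosphate-backbone antisense oligonucleotide (15- or 20-mers, 5-methylcytosines). After two days, RT-PCR with α^32P-dCTP-labeled amplicons, native PAGE and phosphorimaging gave exon 20 inclusion, normalized for G+C content.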

IKAP protein = IKAP protein levels in GM04899 fibroblasts (SDS-PAGE, anti-IKAP antibody, band intensity); format: cell-based, human
Method: Protein samples were obtained by Trizol extraction and separated by SDS-PAGE. The bands were transferred onto a nitrocellulose membrane and probed with an anti-IKAP antibody (abcam #ab56362) (1:1,000 dilution in 5% milk in TBST) for 12 hrs. The membrane was washed 5 times with TBST for 5 min each and then probed with secondary antibody 800 nm LiCor (1:5,000 in 5% milk in TBST) for 1 hr in the dark. The membrane was subsequently washed 5 times with TBST for 5 min each. The bands were then exposed at 800 nm and band intensity was quantified using an Odyssey (LiCor) instrument. The results are presented in Table 4 as percent increase in band intensity compared to the control oligonucleotide-treated bands.

human IKBKAP mRNA = test: Exon 20 inclusion in neonatal transgenic mice after single ICV or subcutaneous injection; format: in vivo, mouse; conditions: neonatal Tg mice
Method: To investigate the effect of ISIS 421992 in an animal model, transgenic mice that carry the entire human IKBKAP gene with the major FD mutation, in addition to being homozygous wild type at the mouse Ikbkap locus, were obtained from an NIH core facility.
Neonatal transgenic mice were also treated with ISIS 421992 administered as a single ICV injection dose of 2.5 μg, 5 μg, 10 μg, 20 μg, or 30 μg. A group of neonatal mice were treated with ISIS 421992 administered subcutaneously using a 10 μL micro syringe (Hamilton) and a 33-gauge needle. In all cases, the injections were administered at P1 and the RNA was assayed at P8. The RNA splicing patterns in the various tissues after administering ISIS 421992 in neonate mice were then observed. Multiple lanes for each condition represent independent experiments.

ISIS 421992: uniform 2′-MOE 20-mer, phosphate backbone; GTCGCAAACAGTACAATGGC, SEQ ID NO 61, intron 20 (eGeTe[5mC]eGe[5mC]eAeAeAe[5mC]eAeGeTeAe[5mC]eAeAeTeGeGe[5mC])
% inclusion (exon 20) [1]: 96%
Percent increase in protein band intensity (IKAP) (IKAP protein; GM04899, 2 nM as printed in Table 4, 3 days after transfection, compared to control oligonucleotide-treated bands): 76%
IKAP protein levels, in words (IKAP protein; GM04899, 5 nM, assayed 3 days after transfection): significant increase in IKAP protein levels
tissue pattern of full-length IKBKAP mRNA, in words (human IKBKAP mRNA; ICV administration): increased full-length IKBKAP mRNA in the brain and spinal cord, with moderate effects in the peripheral tissues
Percent inclusion of exon 20 in human IKBKAP mRNA (human IKBKAP mRNA; ICV administration, Brain): 50%
Percent inclusion of exon 20 in human IKBKAP mRNA (human IKBKAP mRNA; ICV administration, Heart): 40%
Percent inclusion of exon 20 in human IKBKAP mRNA (human IKBKAP mRNA; ICV administration, Kidney): 33%
Percent inclusion of exon 20 in human IKBKAP mRNA (human IKBKAP mRNA; ICV administration, Liver): 44%
Percent inclusion of exon 20 in human IKBKAP mRNA (human IKBKAP mRNA; ICV administration, Muscle): 33%
Percent inclusion of exon 20 in human IKBKAP mRNA (human IKBKAP mRNA; ICV administration, Spinal Cord): 47%
Percent inclusion of exon 20 in human IKBKAP mRNA (human IKBKAP mRNA; s.c. injection, Brain): 18%
Percent inclusion of exon 20 in human IKBKAP mRNA (human IKBKAP mRNA; s.c. injection, Heart): 58%
Percent inclusion of exon 20 in human IKBKAP mRNA (human IKBKAP mRNA; s.c. injection, Kidney): 36%
Percent inclusion of exon 20 in human IKBKAP mRNA (human IKBKAP mRNA; s.c. injection, Liver): 72%
Percent inclusion of exon 20 in human IKBKAP mRNA (human IKBKAP mRNA; s.c. injection, Muscle): 60%
Percent inclusion of exon 20 in human IKBKAP mRNA (human IKBKAP mRNA; s.c. injection, Spinal Cord): 19%
Percent inclusion of exon 20 in human IKBKAP mRNA (human IKBKAP mRNA; single ICV injection 2.5 μg at P1, RNA at P8): 13%
Percent inclusion of exon 20 in human IKBKAP mRNA (human IKBKAP mRNA; single ICV injection 5 μg at P1, RNA at P8): 18%
Percent inclusion of exon 20 in human IKBKAP mRNA (human IKBKAP mRNA; single ICV injection 10 μg at P1, RNA at P8): 34%
Percent inclusion of exon 20 in human IKBKAP mRNA (human IKBKAP mRNA; single ICV injection 20 μg at P1, RNA at P8): 36%
Percent inclusion of exon 20 in human IKBKAP mRNA (human IKBKAP mRNA; single ICV injection 30 μg at P1, RNA at P8): 48%
tissue pattern of full-length IKBKAP mRNA, in words (human IKBKAP mRNA; subcutaneous administration): primarily affected expression in the liver, skeletal muscle, and heart with moderate effects in the CNS
